Experimental data: patent US6737383B1, “Herbicidal oxadiazolidines” (priority 1999, dated 2004)

Experiments:
purple nutsedge = experiment: Test B pre/postemergence purple nutsedge; type: in vivo, Cyperus rotundus
Procedure, shortened: (§1)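 Response is a visual 0-to-10 score relative to untreated plants, where 0 means no effect and 10 means complete control, taken twelve to sixteen days after application. Treatments went onto soil at planting and onto foliage of 1- to 4-leaf plants, using a surfactant-containing non-phytotoxic solvent.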

wild oat = experiment: Test B pre/postemergence wild oat; type: in vivo, Avena fatua; details: for Plant response rating, Wild oats: Rate 250 g/ha
Procedure, shortened: as §1

corn = experiment: Test B pre/postemergence corn; type: in vivo, Zea mays
Procedure, shortened: as §1

velvetleaf = experiment: Test B pre/postemergence velvetleaf; type: in vivo, Abutilon theophrasti; details: for Plant response rating, Velvetleaf: Rate 250 g/ha
Procedure, shortened: as §1

blackgrass = experiment: Test B pre/postemergence blackgrass; type: in vivo, Alopecurus myosuroides
Procedure, shortened: as §1

bedstraw = experiment: Test B pre/postemergence bedstraw; type: in vivo, Galium aparine; details: Preemergence
Procedure, shortened: as §1

crabgrass = experiment: Test B pre/postemergence crabgrass; type: in vivo, Digitaria sanguinalis
Procedure, shortened: as §1

surinam grass = experiment: Test B pre/postemergence surinam grass; type: in vivo, Brachiaria decumbens
Procedure, shortened: as §1

soybean = experiment: Test B pre/postemergence soybean; type: in vivo, Glycine max
Procedure, shortened: as §1

sugar beet = experiment: Test B pre/postemergence sugar beet; type: in vivo, Beta vulgaris; details: for Plant response rating, Sugarbeets: Rate 250 g/ha
Procedure, shortened: as §1

pigweed = experiment: Test B pre/postemergence pigweed; type: in vivo, Amaranthus retroflexus
Procedure, shortened: as §1

giant foxtail = experiment: Test B pre/postemergence giant foxtail; type: in vivo, Setaria faberii
Procedure, shortened: as §1

cocklebur = experiment: Test B pre/postemergence cocklebur; type: in vivo, Xanthium strumarium
Procedure, shortened: as §1

[1] = Postemergence, Rate 62 g/ha, scale 0 to 10, 0 is no effect, 10 is complete control
[2] = Postemergence, Rate 125 g/ha, scale of 0 to 10 where 0 is no effect and 10 is complete control
[3] = Postemergence, Rate 250 g/ha, scale 0 to 10, 0 no effect, 10 complete control
[4] = Preemergence, Rate 62 g/ha, scale 0 to 10 (0 no effect, 10 complete control)
[5] = Preemergence, Rate 125 g/ha, scale 0 to 10 (0 no effect, 10 complete control)
[6] = Preemergence, Rate 250 g/ha, scale of 0 to 10 where 0 is no effect and 10 is complete control
[7] = Rate 500 g/ha, Postemergence, scale 0 to 10, 0 no effect, 10 complete control
[8] = Preemergence, Rate 125 g/ha, 0 is no effect, 10 is complete control
[9] = Preemergence, scale of 0 to 10 where 0 is no effect and 10 is complete control
[10] = Preemergence, Rate 500 g/ha, scale 0 (no effect) to 10 (complete control)
[11] = Postemergence, scale 0 to 10, 0 is no effect, 10 is complete control
[12] = Rate 250 g/ha, Postemergence, scale 0 to 10, 0 is no effect, 10 is complete control

CCCn1c(=O)on(C(=O)N(c2ccc(F)cc2)C(C)C)c1=O [Compound 91]
Nutsedge plant response rating (purple nutsedge; [1]): 0 | Nutsedge plant response rating (purple nutsedge; [2]): 0 | Nutsedge plant response rating (purple nutsedge; [3]): 0 | Nutsedge plant response rating (purple nutsedge; [4]): 0 | Plant response rating, Nutsedge (purple nutsedge; [5]): 0 | Plant response rating, Nutsedge (purple nutsedge; [6]): 0 | Nutsedge plant response rating (purple nutsedge; [7]): 0 | Wild oats plant response rating (wild oat; [1]): 1 | Wild oats plant response rating (wild oat; [2]): 2 | Wild oats plant response rating (wild oat; [4]): 8 | Wild oats plant response rating (0 to 10 scale) (wild oat; [8]): 9 | Plant response rating, Wild oats (wild oat; [9]): 10 | Wild oats plant response rating (wild oat; [10]): 10 | Plant response rating, Wild oats (wild oat; [11]): 3 | Wild oats plant response rating (wild oat; [7]): 5 | Corn plant response rating (corn; [1]): 2 | Corn plant response rating (corn; [2]): 2 | Corn plant response rating (corn; [3]): 3 | Corn plant response rating (corn; [4]): 3 | Plant response rating, Corn (corn; [5]): 6 | Plant response rating, Corn (corn; [6]): 8 | Corn plant response rating (corn; [10]): 9 | Corn plant response rating (corn; [7]): 5 | Velvetleaf plant response rating (velvetleaf; [1]): 0 | Velvetleaf plant response rating (velvetleaf; [2]): 0 | Velvetleaf plant response rating (velvetleaf; [4]): 6 | Velvetleaf plant response rating (0 to 10 scale) (velvetleaf; [8]): 6 | Plant response rating, Velvetleaf (velvetleaf; [9]): 7 | Velvetleaf plant response rating (velvetleaf; [10]): 8 | Plant response rating, Velvetleaf (velvetleaf; [11]): 3 | Blackgrass plant response rating (blackgrass; [1]): 8 | Blackgrass plant response rating (blackgrass; [2]): 8 | Blackgrass plant response rating (blackgrass; [3]): 8 | Blackgrass plant response rating (blackgrass; [4]): 10 | Plant response rating, Blackgrass (blackgrass; [5]): 10 | Plant response rating, Blackgrass (blackgrass; [6]): 10 | Blackgrass plant response rating (blackgrass; [10]): 10 | Blackgrass plant response rating (blackgrass; [7]): 8 | Bedstraw plant response rating (bedstraw; Rate 62 g/ha, scale 0 to 10 (0 no effect, 10 complete control)): 0 | Plant response rating, Bedstraw (bedstraw; Rate 125 g/ha, scale 0 to 10 (0 no effect, 10 complete control)): 1 | Plant response rating, Bedstraw (bedstraw; Rate 250 g/ha, scale of 0 to 10 where 0 is no effect and 10 is complete control): 5 | Bedstraw plant response rating (bedstraw; Rate 500 g/ha, scale 0 (no effect) to 10 (complete control)): 8 | Crabgrass plant response rating (crabgrass; [1]): 5 | Crabgrass plant response rating (crabgrass; [2]): 9 | Crabgrass plant response rating (crabgrass; [3]): 9 | Crabgrass plant response rating (crabgrass; [4]): 10 | Plant response rating, Crabgrass (crabgrass; [5]): 10 | Plant response rating, Crabgrass (crabgrass; [6]): 10 | Crabgrass plant response rating (crabgrass; [10]): 10 | Crabgrass plant response rating (crabgrass; [7]): 9 | B. signalgrass plant response rating (surinam grass; [1]): 4 | B. signalgrass plant response rating (surinam grass; [3]): 8 | B. signalgrass plant response rating (surinam grass; [4]): 7 | Plant response rating, B. signalgrass (surinam grass; [5]): 10 | Plant response rating, B. signalgrass (surinam grass; [6]): 10 | B. signalgrass plant response rating (surinam grass; [10]): 10 | B. signalgrass plant response rating (surinam grass; Rate 125 g/ha, Postemergence, scale 0 to 10, 0 no effect, 10 complete control): 4 | B. signalgrass plant response rating (surinam grass; Rate 500 g/ha, Postemergence, scale of 0 to 10 where 0 is no effect and 10 is complete control): 8 | Soybean plant response rating (soybean; [1]): 3 | Soybean plant response rating (soybean; [2]): 3 | Soybean plant response rating (soybean; [4]): 0 | Plant response rating, Soybean (soybean; [5]): 0 | Plant response rating, Soybean (soybean; [6]): 4 | Soybean plant response rating (soybean; [10]): 7 | Plant response rating, Soybean (soybean; [12]): 4 | Soybean plant response rating (soybean; [7]): 5 | Sugarbeets plant response rating (sugar beet; [1]): 3 | Sugarbeets plant response rating (sugar beet; [2]): 6 | Sugarbeets plant response rating (sugar beet; [4]): 7 | Sugarbeets plant response rating (0 to 10 scale) (sugar beet; [8]): 7 | Plant response rating, Sugarbeets (sugar beet; [9]): 9 | Sugarbeets plant response rating (sugar beet; [10]): 10 | Plant response rating, Sugarbeets (sugar beet; [11]): 6 | Sugarbeets plant response rating (sugar beet; [7]): 6 | Redroot pigweed plant response rating (pigweed; [1]): 1 | Redroot pigweed plant response rating (pigweed; [2]): 4 | Redroot pigweed plant response rating (pigweed; [4]): 6 | Plant response rating, Redroot pigweed (pigweed; [5]): 9 | Plant response rating, Redroot pigweed (pigweed; [6]): 10 | Redroot pigweed plant response rating (pigweed; [10]): 10 | Plant response rating, Redroot pigweed (pigweed; [12]): 6 | Redroot pigweed plant response rating (pigweed; [7]): 8 | Giant foxtail plant response rating (giant foxtail; [1]): 8 | Giant foxtail plant response rating (giant foxtail; [2]): 8 | Giant foxtail plant response rating (giant foxtail; [3]): 8 | Giant foxtail plant response rating (giant foxtail; [4]): 10 | Plant response rating, Giant foxtail (giant foxtail; [5]): 10 | Plant response rating, Giant foxtail (giant foxtail; [6]): 10 | Giant foxtail plant response rating (giant foxtail; [10]): 10 | Giant foxtail plant response rating (giant foxtail; [7]): 9 | Cocklebur plant response rating (cocklebur; [1]): 3 | Cocklebur plant response rating (cocklebur; [2]): 3 | Cocklebur plant response rating (cocklebur; [3]): 4 | Cocklebur plant response rating (cocklebur; [4]): 0 | Plant response rating, Cocklebur (cocklebur; [5]): 0 | Cocklebur plant response rating (cocklebur; [10]): 3 | Cocklebur plant response rating (cocklebur; [7]): 4
